Data reported in paper PMC1190152, “Archazolid and apicularen: Novel specific V-ATPase inhibitors” (BMC Biochemistry, 2005).
Where two headings read alike, the source gives them in different places.

How the values were obtained:
[1] = molecular target: T1, F-ATPase (Mus musculus, UniProt P56480); test: Inhibition of F-ATPase activity in crude membranes from mouse heart; format: biochemical
T1 construct: we prepared mitochondria rich crude membranes from mouse heart; from tissue; host or cells: mouse heart, crude membrane extract
Procedure: (§1) The V-ATPase holoenzyme was purified as published elsewhere. Preparation of highly purified membranes containing Na^+/K^+-ATPase from pig kidney followed the protocol of Jørgensen with the three main steps of differential centrifugation, incubation with SDS in the presence of ATP and sucrose density gradient centrifugation in a fixed angle rotor, and led to a specific enzyme activity which was in the same range as that reported by the authors. The resulting sample was stored frozen at -20°C. To prepare crude membrane extracts, the hearts of three mice were washed three times with an ice-cold buffer of pH 8.1 consisting of 0.25 M sucrose, 5 mM Tris-HCl, 5 mM EDTA, and 10 mM Pefabloc SC (Biomol), homogenized in 5 ml of this buffer and centrifuged at 4°C for 25 min at 233,000 × gmax in a fixed angle rotor. The resulting pellet was resuspended in 5 ml of a buffer of pH 7.5, consisting of 5 mM Tris-MOPS (3-morpholinopropanesulfonic acid), 10 mM NaCl, 10 mM Pefabloc SC, 9.6 mM 2-mercaptoethanol, 0.53 mM EGTA and 0.1 % Triton X-100. After an aliquot for protein determination had been taken, 10% bovine serum albumin (final concentration) was added to the suspension which was then stored on ice until the activity assays were run. Beef heart mitochondria were isolated by differential centrifugation, following the protocol of Smith by using a blender to homogenize the heart mince. The initial homogenization buffer consisted of 250 mM saccharose, 10 mM KH2PO4, 10 mM Tris, 2 mM EGTA, 2 mM MgCl2, pH 7.4, and further isolation procedures were carried out in the same medium without EGTA [24]. Submitochondrial particles were obtained by ultrasonic treatment of the mitochondria.
(§2) Standard V-ATPase assays with a final volume of 160 μl and a pH of 8.1 consisted of 3–4 μg of protein, 50 mM Tris-MOPS, 3 mM 2-mercaptoethanol, 1 mM MgCl2, 20 mM KCl, 0.003% C12E10, 20 mM NaCl, and 3 mM Tris-HCl. After 5 min of pre-incubation at 30°C with or without inhibitors, 1 mM Tris-ATP was added and after incubation for 2 min the reaction was stopped by placing the tube in liquid nitrogen. Assays using Na^+/K^+-ATPase were performed in 160 μl at pH 7.5 and contained 0.5 μg of protein, 50 mM Tris-MOPS, 5 mM imidazole, 0.2 mM EDTA, 4 mM MgCl2, 20 mM KCl and 100 mM NaCl. After 5 min of pre-incubation at 37°C with or without inhibitors, 3 mM Tris-ATP was added and after 1 min of incubation the reaction was stopped by placing the tube in liquid nitrogen. […] After 5 min of pre-incubation at 30°C with or without inhibitors, 1 mM Tris-ATP was added and after an incubation time of 10 min the reaction was stopped by placing the tubes in liquid nitrogen. ATPase assays with submitochondrial particles from beef heart were performed in a final volume of 1 ml and a pH of 8.0. The samples contained 9–12 μg protein, 50 mM Tris, 50 mM KCl and 2.5 mM MgCl2. After 5 min of preincubation with or without inhibitors, 5 mM ATP was added, and after an additional incubation time of 15 min the reaction was stopped by the addition of 0.4 ml of 20 % TCA.
(§3) Inorganic phosphate produced in the assays of V-ATPase, Na^+/K^+-ATPase and mouse heart F-ATPase was measured according the protocol of Wieczorek et al., while the determination of inorganic phosphate produced in the assays of beef heart F-ATPase followed the method of Fiske and Subarrow using ascorbic acid as reducing agent.

[2] = molecular target: T2, F-ATPase (Bos taurus, UniProt P00829); test: Inhibition of F-ATPase activity in submitochondrial particles from beef heart; format: biochemical
T2 construct: Submitochondrial particles were obtained by ultrasonic treatment of the mitochondria; from tissue; host or cells: beef heart mitochondria, submitochondrial particles
Procedure: as §1, §2, §3

[3] = tested on: A-594; test: Growth inhibition of A-594 cells (MTT assay); format: cell-based, human; details: 120 h, read-out: IC50 growth inhibition
Procedure: (§4) Cell lines were obtained from the German Collection of Microorganisms and Cell Cultures (DSMZ). Cell lines 3Y1 and M1 (embryonal fibroblasts from 129/Ola × C57BL/6 mice, [30]) were a generous gift from Dr. S. Miyamoto, Fukoka, Japan, and Dr. P. F. Mühlradt, Braunschweig, Germany. All cell lines were cultivated under conditions recommended by the supplier. Growth inhibition was measured in microtiterplates. Aliquots of 120 μl of the suspended cells (50,000/ml) were given to 60 μl of a serial dilution of the inhibitor. After 5 days, growth was determined using the MTT assay.

[4] = tested on: 3Y1; test: Growth inhibition of 3Y1 cells (MTT assay); format: cell-based, rat; details: read-out: IC50 growth inhibition
Procedure: as §4

[5] = tested on: L-929; design: method as in PMID 12931860; details: L-929, murine connective tissue; ref [17]; read-out: IC50 growth inhibition; cited from earlier work
[6] = tested on: PtK2 cells; test: Inhibition of lysosomal acidification (LysoTracker staining); format: cell-based, potoroo; details: 4 hours with inhibitor
Procedure: PtK2 (ATCC CCL-56) or KB-3-1 cells were grown on glass coverslips (13 mm diameter) in four-well-plates. Exponentially growing cells were incubated with the inhibitors for 4 hours and stained for lysosomes with 50 nM LysoTracker Red DND-99 and for mitochondria with 75 nM MitoTracker Green FM (both from Molecular Probes) at 37°C for 30 min. The nuclei were stained using Hoechst 33258 (5 μg/ml). The coverslips were mounted upside down in PBS, fixed with nail polish, and observed under the fluorescent microscope.

[7] = tested on: KB-V1; test: Growth inhibition of multidrug-resistant KB-V1 cells (MTT assay), with or without verapamil; format: cell-based; details: 120 h; KB-V1, mdr human cervix carcinoma; without verapamil; MTT after 5 days
Procedure: The novel antibiotics archazolids and apicularens (Fig. 1) were checked for their impact on the cell growth of a variety of mammalian cell lines from different tissues (Tab. 1). […] Apicularen B was the only exception, with an average IC50 value two orders of magnitude higher. Growth inhibition of the multidrug-resistant cell line KB-V1 was also measured in the presence of verapamil. […] The data in Tab 1. show, that unlike the archazolids, the apicularens are poor substrates of Pgp. To visualize the impact of the antibiotics, PtK2 (potoroo kidney) cells were incubated with the inhibitors and stained for intact acidic lysosomes (Fig. 2). […] The same observation was made with KB-3-1 cells (data not shown). […] Unlike the cell lines listed in Tab. 1, the growth of PtK2 cells was not completely stopped. The same holds true for A-498 cells (human kidney carcinoma). Both cell lines grow epithelial-like. There was obviously a differential reaction of cell lines to V-ATPase inhibitors. For A-431 cells (human epidermoid carcinoma) a dependence on the expression of the EGF receptor was shown.
as §4

[8] = molecular target: T3, Vo subunit c (Manduca sexta, UniProt P31403); design: method as in PMID 12186879; details: previous study; ref [10]; cited from earlier work
T3 construct: from tissue; host or cells: midgut of Manduca sexta larvae (purified V-ATPase)

[9] = tested on: M1; test: Growth inhibition of M1 cells (MTT assay); format: cell-based, mouse; details: 120 h, read-out: IC50 growth inhibition
Procedure: as §4

[10] = molecular target: T4, V-ATPase holoenzyme from the midgut of the tobacco hornworm (Manduca sexta, UniProt P31403); design: method as in PMID 12186879; details: ref [10], cited from earlier work
T4 construct: purified V-ATPase holoenzyme from the midgut of the tobacco hornworm; from tissue; host or cells: midgut of fifth instar Manduca sexta larvae

[11] = molecular target: T5, Na+/K+-ATPase (Sus scrofa, UniProt P05024); test: Inhibition of Na+/K+-ATPase from pig kidney; format: biochemical
T5 construct: highly purified, Na^+/K^+-ATPase containing plasma membranes from pig kidney; from tissue; host or cells: pig kidney, purified plasma membranes
Procedure: as §1, §2, §3

[12] = tested on: bacterial growth; details: ref [11],[15],[17]; cited from earlier work
[13] = molecular target: T4, V-ATPase holoenzyme from the midgut of the tobacco hornworm; test: Inhibition of purified V-ATPase holoenzyme activity; format: biochemical
Procedure: as §1, §2, §3
Fifth instar larvae of M. sexta (Lepidoptera, Sphingidae), weighing 6–8 g, were reared under long day conditions (16 h of light) at 27°C using a synthetic diet modified according to Bell et al.

[14] = read-out: ATPase activity reduced to (remaining activity)
[15] = mouse heart crude membranes, specific F-ATPase inhibitors
[16] = beef heart submitochondrial particles, specific F-ATPase inhibitors
[17] = mouse heart crude membranes, inhibitor 1 μM
[18] = beef heart submitochondrial particles, inhibitor 1 μM
[19] = experiment 1, inhibitor 0.1 mM, control 19.0
[20] = experiment 1, inhibitor 1 mM, control 19.0
[21] = experiment 2, inhibitor 1 mM, control 15.9

T4 sequence (P31403 whole entry): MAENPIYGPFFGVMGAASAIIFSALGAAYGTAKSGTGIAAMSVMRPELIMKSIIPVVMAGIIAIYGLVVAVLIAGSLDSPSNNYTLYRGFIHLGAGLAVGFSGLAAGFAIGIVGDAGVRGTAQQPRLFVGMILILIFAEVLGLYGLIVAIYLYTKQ
T3 sequence (P31403 whole entry): as above

With `C/C=C/[C@H]1O[C@@](O)([C@@H](C)[C@H](O)[C@H](C)[C@H]2OC(=O)/C(OC)=C/C(C)=C/[C@@H](C)[C@@H](O)[C@@H](CC)[C@@H](O)[C@H](C)C/C(C)=C/C=C/[C@@H]2OC)C[C@@H](O)[C@@H]1C` [concanamycin, reference compound] the remaining activity at 1 µM [1, 14] was roughly 80% and the remaining activity at 1 µM [2, 14] was roughly 80%.

For `CO/C1=C\C(C)=C\[C@@H](C)[C@@H](O)[C@@H](C)C/C(C)=C/C=C/[C@H](OC)[C@@H]([C@@H](C)[C@@H](O)[C@H](C)[C@@]2(O)C[C@@H](O)[C@H](C)[C@@H](C(C)C)O2)OC1=O` [bafilomycin A1, reference compound], the IC50 ([3]; A-594, human lung carcinoma, MTT after 5 days) is given as 0.4 nM, the IC50 ([4]; 120 h, 3Y1, rat embryogenic fibroblast cell line, MTT after 5 days) is given as 5.6 nM and the IC50 [5] is given as 3.2 nM. For the same compound, the “red LysoTracker staining indicating acidic lysosomes” value [6] was “disappeared”, the IC50 [7] was 7.2 nM and the “labelling of / binding to subunit c” value [8] was “prevented”. It also gave an IC50 ([9]; M1, mouse embryogenic fibroblast cell line, MTT after 5 days) of 2.6 nM.

For `CO/C1=C\C(C)=C\[C@@H](C)[C@@H](O)[C@@H](C)C/C(C)=C/C=C/[C@H](OC)[C@@H]([C@@H](C)[C@@H](O)[C@H](C)[C@@]2(O)C[C@@H](OC(=O)/C=C/C(=O)NC3=C(O)CCC3=O)[C@H](C)[C@@H](C(C)C)O2)OC1=O` [bafilomycin B1], the “IC50 per mg of protein, purified V-ATPase” value [10] is given as “ca. 0.5 nmol per mg of protein”, the IC50 ([10]; read-out: half-maximal inhibition concentration of purified V-ATPase) is given as roughly 10 nM and the “labelling of / binding to subunit c” value [8] is given as “prevented”.

In the case of `CC[C@H]1/C=C/C=C/C[C@@H](C)[C@H](O)[C@@](C)(O)C(=O)[C@@H](C)[C@H](O)[C@@H](C)C(=O)[C@@H](C)[C@H](O)[C@@H](C)/C=C/C(=O)O[C@@H]2[C@H](C)[C@H](CC1)O[C@]1(CC[C@H](C)[C@H](C[C@@H](C)O)O1)[C@H]2C` [oligomycin, reference compound], the “ATPase activity reduced to (remaining activity)” value [1, 15] is reported as “around 25%” and the “ATPase activity reduced to (remaining activity)” value [2, 16] is reported as “around 25%”.

For apicularen, the “ATPase activity reduced to (remaining activity)” value [1, 17] was “approximately 80%”, the “effect of increased inhibitor concentration on F-ATPase activity” value ([1]; mouse heart crude membranes, inhibitor 10 μM) was “no substantial effect” and the “ATPase activity reduced to (remaining activity)” value [2, 18] was “approximately 80%”. For the same compound, the “effect of increased inhibitor concentration on F-ATPase activity” value ([2]; beef heart submitochondrial particles, inhibitor 10 μM) was “no substantial effect”.

With `C[C@@H]1O[C@@H](O[C@H]2C[C@@H](O)[C@]3(CO)[C@H]4[C@H](O)C[C@]5(C)[C@@H](C6=CC(=O)OC6)CC[C@]5(O)[C@@H]4CC[C@]3(O)C2)[C@H](O)[C@H](O)[C@H]1O` [ouabain] the “specific activity of Na+/K+-ATPase” value [11, 19] was 5.2 µmol/mg/min, the “specific activity of Na+/K+-ATPase” value [11, 20] was 0 µmol/mg/min and the “specific activity of Na+/K+-ATPase” value [11, 21] was 0 µmol/mg/min. For the same compound, the “effect on Na+/K+-ATPase activity” value ([11]; inhibitor 1 mM) was “completely inhibited”.

With `[O]=[V]([O-])([O-])[O-]` [vanadate] the “specific activity of Na+/K+-ATPase” value [11, 19] was 2.0 µmol/mg/min, the “specific activity of Na+/K+-ATPase” value [11, 20] was 0 µmol/mg/min and the “specific activity of Na+/K+-ATPase” value [11, 21] was 0 µmol/mg/min. For the same compound, the “effect on Na+/K+-ATPase activity” value ([11]; inhibitor 1 mM) was “completely inhibited”.

With `[N-]=[N+]=[N-]` [azide, reference compound] the “ATPase activity reduced to (remaining activity)” value [1, 15] was “around 25%” and the “ATPase activity reduced to (remaining activity)” value [2, 16] was “around 25%”.

In the case of `CNC(=O)O[C@@H](CC(C)C)c1nc([C@H]2OC(=O)/C=C/C/C(C)=C/[C@@H](O)[C@@H](C)\C=C(C)/C=C(C)\C=C\[C@@H](O)[C@H](C)[C@H](OC)/C(C)=C/C=C/[C@@H]2C)cs1` [archazolid B], the “inhibition of bacterial growth” value [12] is listed as “failed to inhibit”, the IC50 ([3]; Homo sapiens) is listed as 0.69 nM and the IC50 ([4]; Rattus norvegicus, 3Y1, 120 h) is listed as 1.1 nM. For the same compound, the IC50 [13] was roughly 20 nM, the “IC50 per mg of protein, purified V-ATPase” value ([13]; equivalent of the half-maximal concentration) was “ca. 0.8 nmol per mg of protein” and the IC50 [5] was 1.1 nM. For the same compound, the IC50 [7] was 35 nM and the IC50 ([9]; Mus musculus, Fibroblast) was 0.35 nM.

For `CO/C1=C\C(C)=C\[C@@H](C)[C@@H](O)[C@@H](C)C/C(C)=C/C=C/[C@H](OC)[C@@H]([C@@H](C)[C@@H](O)[C@H](C)[C@@]2(O)C[C@@H](O)[C@H](C)[C@@H](C(C)C)O2)OC1=O` [bafilomycin, reference compound], the “ATPase activity reduced to (remaining activity)” value [1, 17] was “approximately 80%” and the “ATPase activity reduced to (remaining activity)” value [2, 18] was “approximately 80%”.
